Among the data in the NIST ThermoML archive (doi:10.1021/je800348s) are viscosity and mass density values, retold here.

Numbers after ± are expanded uncertainties.

The conditions of series [1]: 101 kPa, Liquid; for mass density: Vibrating tube method.
Series [2] in a line: xn = mol fraction of the nth substance listed. The note with it: 101 kPa, Liquid, x1 = 1; for mass density: Vibrating tube method.

Regarding `CCCCCCCCCC` [decane], the viscosity in series [1] (293.15 K) is on record as 0.9491 ± 0.024 mPa·s; in series [1] (298.15 K) it was 0.8434 ± 0.022 mPa·s; in series [1] (303.15 K), 0.8172 ± 0.021 mPa·s; in series [1] (313.15 K), 0.7851 ± 0.02 mPa·s. The mass density is recorded as 730 ± 8 kg/m3 in series [1] (293.15 K), 726.4 ± 8 kg/m3 in series [1] (298.15 K), 722.5 ± 8 kg/m3 in series [1] (303.15 K) and 715.4 ± 8 kg/m3 in series [1] (313.15 K).
Consider `CCCCCCCCCC` [decane] + C1C[C@@H]2[C@H]3CC[C@H](C3)[C@@H]2C1, for which the mass density in series [2] (293.15 K) is reported as 730 ± 8 kg/m3; in series [2] (298.15 K), 726.4 ± 8 kg/m3; in series [2] (303.15 K), 722.5 ± 8 kg/m3; in series [2] (313.15 K), 715.4 ± 8 kg/m3. In addition, the viscosity was determined as 0.9491 ± 0.024 mPa·s in series [2] (293.15 K), 0.8434 ± 0.022 mPa·s in series [2] (298.15 K), 0.8172 ± 0.021 mPa·s in series [2] (303.15 K) and 0.7851 ± 0.02 mPa·s in series [2] (313.15 K).
With `C1C[C@@H]2[C@H]3CC[C@H](C3)[C@@H]2C1` [exo-tetrahydrodicyclopentadiene], the viscosity in series [1] (293.15 K) stood at 3.064 ± 0.077 mPa·s; in series [1] (298.15 K), 2.74 ± 0.069 mPa·s; in series [1] (303.15 K), 2.514 ± 0.063 mPa·s; in series [1] (313.15 K), 2.27 ± 0.057 mPa·s. Besides, the mass density in series [1] (293.15 K) turned out to be 935.2 ± 8 kg/m3; in series [1] (298.15 K), 931.4 ± 8 kg/m3; in series [1] (303.15 K), 927.7 ± 8 kg/m3; in series [1] (313.15 K), 922.2 ± 8 kg/m3.
On to `CCCCCCCC` [octane], for which the viscosity in series [1] (293.15 K) is 0.5439 ± 0.015 mPa·s; in series [1] (298.15 K), 0.5177 ± 0.015 mPa·s; in series [1] (303.15 K), 0.4795 ± 0.014 mPa·s; in series [1] (313.15 K) it was 0.4358 ± 0.013 mPa·s. Besides, the mass density was 702.5 ± 8 kg/m3 in series [1] (293.15 K), 698.5 ± 8 kg/m3 in series [1] (298.15 K), 694.5 ± 8 kg/m3 in series [1] (303.15 K) and 686.3 ± 8 kg/m3 in series [1] (313.15 K).
Consider `CCCCCCCC` [octane] + C1C[C@@H]2[C@H]3CC[C@H](C3)[C@@H]2C1, for which the mass density in series [2] (293.15 K) came to 702.5 ± 8 kg/m3; in series [2] (298.15 K) it was 698.5 ± 8 kg/m3; in series [2] (303.15 K), 694.5 ± 8 kg/m3; in series [2] (313.15 K), 686.3 ± 8 kg/m3. Further, the viscosity in series [2] (293.15 K) was 0.5439 ± 0.015 mPa·s; in series [2] (298.15 K) it was 0.5177 ± 0.015 mPa·s; in series [2] (303.15 K), 0.4795 ± 0.014 mPa·s; in series [2] (313.15 K), 0.4358 ± 0.013 mPa·s.
